# Legend:
# muscarinic receptor [1] = test: Alzheimer's disease model (amyloid β + ibotenic acid): brain muscarinic receptor density by 3H-QNB; format: in vivo, rat; details: Alzheimer's model rats; for brain muscarinic receptor density (in words): 18 mg/kg/day; for Muscarinic receptor Density: 18 mg/kg/day by gastric tube for two months, * p < 0.05
# Source text: (§1) In addition the co-injection of amyloid β with a small amount of ibotenic acid into the rat hippocampus synergistically produces neuronal loss with infiltration of glial cells not only adjacent but also far from the injected site (Morimoto et al., 1998: Neuroscience, 84, 479-487).
# (§2) Our studies used the method of Morimoto (Morimoto et al., 1998: Neuroscience, 84, 479-487) with some modifications (unilateral instead of bilateral injection). Three months old, Sprague Dawley rats, were randomly divided into different groups. Injection of amyloid β1-40 and ibotenic acid (both from Sigma) was accomplished by means of a stereotaxic instrument (Stoelting Co.) and the coordinates were AP=−0.5 mm […], L=−2.8 mm […], H=−7.0 mm (ventral to dura). The dose for each rat was amyloid β1-40 (4 μg) and ibotenic acid (1 μg) in 1 μl of saline. The injection was completed in 20 min, and the needle was withdrawn 10 min later. Then the skin was sutured.
# (§3) Episarsasapogenin cathylate, sarsasapogenin cathylate, episarsasapogenin ethylsuccinate (comparison compound), episarsasapogenin, epismilagenin and diosgenin (all at a dosage of 18 mg/kg/day) were administered to animals as stable suspensions in CMC-Na (0.5%) once daily through a gastric tube. The control and the Alzheimer's model group were given the same volume of CMC-Na (0.5%) once daily. The drugs and vehicles were given for a period of two months, starting 20 days before operation.
# The brain samples were homogenised, centrifuged, and the pellet of centrifugation at 27000×g was re-homogenised and used for measurement. The concentration of ^3H-QNB was chosen at the saturation range. After incubation and separation, the bound portion was measured by liquid scintillation counter.
# Sprague Dawley rats = test: Alzheimer's disease model (amyloid β + ibotenic acid): step-through test; format: in vivo, rat; details: for Step through test Error No: 18 mg/kg/day by gastric tube for two months, wrong responses in 5 min, * p < 0.05; for number of wrong responses in step-through test (in words): 18 mg/kg/day, 5 min
# Source text: as §1, §2, §3
# The effect of test compounds on memory was assessed using the step-through test. A 60×15×15 cm box, divided into 2 equally sized rooms, one dark room with copper rod base, which was electrically charged (40 V ac) when in use, while the other was a light room but not electrically charged. Between the two rooms there is an opening (hole) for the rat to go through. The experiment is carried out for each rat on two consecutive days. The first day is for training; when the rat is adapted in the box for the first 3 min, then put in the light room, with its back toward the hole, and the copper rods of the dark room are charged for 5 min. The second day is for testing, when the number of crosses in 5 min are recorded. Improvements in memory are signalled by a reduction in the number of crosses.
# m3 muscarinic receptors = test: CHO-β2/m3 co-transfected cell line: m3 receptor density ([3H]NMS); format: cell-based, Chinese hamster; details: day 5
# Procedure: (§4) Chinese hamster ovary (CHO) cells expressing high levels of muscarinic receptor (˜2.2 pmol mg protein^−1) were plated on a 24 well plate, 1 day before the start of the experiment. The culture medium was replaced with medium containing vehicle (DMSO) or the compounds.
# (§5) The cells were incubated for 2/3 days, then after a medium change, cells were incubated for a further 2/3 days. The cells were incubated with a saturating concentration of labelled N-methyl-scopolamine, ([^3H]NMS). Cells were washed with ice cold phosphate-buffered saline (PBS) (3×) and bound [^3H]NMS determined by solubilising receptors with RIPA buffer followed by liquid scintillation counting.
# (§6) The results shown in FIG. 5 used a CHO cell line co-transfected to express both β2 adrenoceptors and m3 muscarinic receptors. To measure the β2 and m3 receptor density, both [^3H]NMS and [^3H]CGP were used.
# β2 adrenoceptors = test: CHO-β2/m3 co-transfected cell line: β2 adrenoceptor density ([3H]CGP); format: cell-based, Chinese hamster; details: day 5
# Procedure: as §4, §5, §6
# muscarinic receptor [2] = test: Muscarinic receptor density in brain of aged rats (dual-site competitive 3H-QNB binding); format: in vivo, rat; details: 18 mg kg−1 day−1 in food for three months
# Procedure: (§7) Aged Sprague-Dawley rats aged were divided randomly into 4 groups, one control and groups treated for three months with either sarsasapogenin, episarsasapogenin cathylate or smilagenin (18 mg kg^−1 day^−1, n=10). A control group (n=14) of untreated young rats was also included in the study. The daily dose of drug was mixed in a minimum amount of food and was administered every morning separately to each rat.
# Tissue preparation: Brains were removed quickly after decapitation, frozen in dry ice, and transferred to a freezer. The brains were homogenised and the pellet was finally suspended in buffer.
# Dual-site competitive ligand binding assay: ^3H-QNB (quinuclinidyl benzilate) was used as the radio-ligand which was non-selective to M receptor subtypes in vitro. Pirenzipine was used as the selective non-radioactive competing agent. Protein concentration was determined by the micro-Lowry method.
# [3] = tested on: rat primary cortical neurons; test: Neuroprotection against glutamate-induced neurodegeneration (LDH release); format: cell-based; details: rat primary cortical cultures pre-treated for 24 h, read 24 h after glutamate
# Procedure: Rat cortical neurons were cultured for 10 days; at day 10 the medium was changed to a serum-free defined medium. On day 12, 24 hours before glutamate exposure, cultures were washed and medium was replaced with fresh medium containing positive control (β-oestradiol), test compounds (sarsasapogenin, episarsasapogenin cathylate or smilagenin) or vehicle control (DMSO, 0.25%).
# On day 13, cultures were exposed to glutamate.
# After the incubation period, the cultures were washed with and placed in fresh medium, supplemented with relevant compounds or vehicle to evaluate their protective effects, 24 h after glutamate exposure.
# Neuronal cell survival was evaluated by measuring lactate dehydrogenase (LDH) activity released in the media 24 h after test compound treatment or glutamate+test compound exposure, using the CytoTox 96 non-radioactive kit and quantitated by measuring wavelength absorbance at 450 nm.
# muscarinic receptor [4] = test: Cell based assay: muscarinic receptor number in transfected CHO cells by [3H]NMS binding; parameters: species or system Chinese hamster; details: CHO cells expressing muscarinic receptor
# Source text: Chinese hamster ovary (CHO) cells transfected with a vector coding for a muscarinic receptor and/or beta adrenoreceptor. The cell line used for the majority of the experiments was a cell line expressing a muscarinic receptor.
# The effects of epismilagenin cathylate, sarsasapogenin cathylate, episarsasapogenin cathylate, episarsasapogenin succinate, epismilagenin acetate and sarsasapogenin on the expression of m receptors in CHO cells transfected with vector for the m receptor were investigated. Receptor numbers were assayed using [^3H]NMS binding and subtracting non-specific binding. Compounds were dissolved in dimethyl sulphoxide (DMSO) and DMSO was used as a control.
# as §4, §5
# Aged Sprague-Dawley rats = test: Y-maze learning and memory test in aged rats; format: in vivo, rat; details: 18 mg kg−1 day−1 in food for three months
# Procedure: as §7
# A Y-maze apparatus was used for the learning and memory test. On the floor of each arm of the Y-maze is an array of copper rods to which electric current is applied whenever needed, with adjustable voltage. Each arm is 45 cm long and has a 15 W lamp at the end, which is turned on when needed. After 3 months drug administration, each rat was trained for 7 consecutive days, as follows. For each training session, the rat was put into one arm of the Y-maze, after two minutes rest, an electrical current was applied to the copper rods and the lamp of the clockwise arm was illuminated to indicate the non-stimulation area. If the rat went into that arm, one correct response was recorded, otherwise, one wrong response was recorded. This stimulation-response test was repeated 20 times each day, with a pause of 5 sec between each two consecutive tests. The number of correct responses following the twenty tests on the seventh day was used to express learning ability, (the higher the number the better the learning ability). The rats were then left resting for 30 days and the procedure was repeated once more. The number of correct responses of the 20 tests after the 30 day rest period was used to represent the memory ability
SMILES,brain muscarinic receptor density (in words) (muscarinic receptor [1]),Muscarinic receptor Density (muscarinic receptor [1]),Step through test Error No (Sprague Dawley rats),number of wrong responses in step-through test (in words) (Sprague Dawley rats),density of m3 receptors (m3 muscarinic receptors),decrease in β2 adrenoceptors (β2 adrenoceptors),muscarinic receptor number in brain (muscarinic receptor [2]),glutamate-induced neurodegeneration (LDH release) [3],effect on decrease in muscarinic receptor number over the culturing period (muscarinic receptor [4]),learning and memory ability (Y-maze) (Aged Sprague-Dawley rats)
"C[C@@H]1CC[C@@]2(OC1)O[C@H]1C[C@H]3[C@@H]4CC=C5C[C@@H](O)CC[C@]5(C)[C@H]4CC[C@]3(C)[C@H]1[C@@H]2C [diosgenin, reference compound]",did not significantly change the muscarinic receptor density,770 ± 68 fmol/mg/protein,3.75 ± 1.49,ineffective in decreasing the number of wrong responses,–,–,–,–,–,–
CC(=O)OC1CCC2(C)C(CCC3C2CCC2(C)C3CC3OC4(CCC(C)CO4)C(C)C32)C1 (stereo not shown) [epismilagenin acetate],–,–,–,–,did not significantly alter the density of m3 receptors,significantly prevented,–,–,–,–
"CCOC(=O)CCC(=O)OC1CCC2(C)C(CCC3C2CCC2(C)C3CC3OC4(CCC(C)CO4)C(C)C32)C1 (stereo not shown) [episarsasapogenin ethylsuccinate, reference compound]",did not significantly change the muscarinic receptor density,774 ± 79 fmol/mg/protein,3.73 ± 1.35,ineffective in decreasing the number of wrong responses,–,–,–,–,–,–
C[C@H]1CC[C@@]2(OC1)O[C@H]1C[C@H]3[C@@H]4CC[C@@H]5C[C@H](O)CC[C@]5(C)[C@H]4CC[C@]3(C)[C@H]1[C@@H]2C [episarsasapogenin],significant elevation in brain muscarinic receptor density,869 ± 104* fmol/mg/protein,1.50 ± 1.18*,significantly decreased the number of wrong responses,–,–,–,–,–,–
"CCOC(=O)O[C@@H]1CC[C@@]2(C)[C@H](CC[C@@H]3[C@@H]2CC[C@]2(C)[C@@H]4[C@H](C[C@@H]32)O[C@]2(CC[C@H](C)CO2)[C@H]4C)C1 [episarsasapogenin cathylate, 3-Ethoxycarbonyl 5β,20α,22α,25S-spirostan-3α-ol]",significant elevation in brain muscarinic receptor density,877 ± 89* fmol/mg/protein,1.36 ± 0.92*,significantly decreased the number of wrong responses,–,–,significantly restored the muscarinic receptor number,significant reduction in the glutamate-induced neurodegeneration,prevents the decrease in muscarinic receptor number,restored the learning and memory ability
"CCOC(=O)O[C@@H]1CC[C@@]2(C)[C@H](CC[C@@H]3[C@@H]2CC[C@]2(C)[C@@H]4[C@H](C[C@@H]32)O[C@]2(CC[C@@H](C)CO2)[C@H]4C)C1 [epismilagenin cathylate, 3-Ethoxycarbonyl 5β,20α,22α,25R-spirostan-3α-ol]",–,–,–,–,–,–,–,–,prevents the decrease in muscarinic receptor number,–
"CC1CCC2(OC1)OC1CC3C4CCC5CC(OC(=O)CCC(=O)O)CCC5(C)C4CCC3(C)C1C2C (stereo not drawn) [episarsasapogenin succinate, mono-3α,5β,20α,22α,25S-spirostanyl succinate]",–,–,–,–,–,–,–,–,prevents the decrease in muscarinic receptor number,–
C[C@H]1CC[C@@]2(OC1)O[C@H]1C[C@H]3[C@@H]4CC[C@@H]5C[C@@H](O)CC[C@]5(C)[C@H]4CC[C@]3(C)[C@H]1[C@@H]2C [sarsasapogenin],–,–,–,–,–,–,significantly restored the muscarinic receptor number,significant reduction in the glutamate-induced neurodegeneration,prevents the decrease in muscarinic receptor number,restored the learning and memory ability
"CCOC(=O)O[C@H]1CC[C@@]2(C)[C@H](CC[C@@H]3[C@@H]2CC[C@]2(C)[C@@H]4[C@H](C[C@@H]32)O[C@]2(CC[C@H](C)CO2)[C@H]4C)C1 [sarsasapogenin cathylate, 3-Ethoxycarbonyl 5β,20α,22α,25S-spirostan-3-β-ol]",significant elevation in brain muscarinic receptor density,916 ± 158* fmol/mg/protein,1.36 ± 1.03*,significantly decreased the number of wrong responses,–,–,–,–,prevents the decrease in muscarinic receptor number,–
C[C@@H]1CC[C@@]2(OC1)O[C@H]1C[C@H]3[C@@H]4CC[C@@H]5C[C@@H](O)CC[C@]5(C)[C@H]4CC[C@]3(C)[C@H]1[C@@H]2C [smilagenin],–,–,–,–,–,–,significantly restored the muscarinic receptor number,significant reduction in the glutamate-induced neurodegeneration,–,restored the learning and memory ability
C[C@@H]1CC[C@@]2(OC1)O[C@H]1C[C@H]3[C@@H]4CC[C@@H]5C[C@H](O)CC[C@]5(C)[C@H]4CC[C@]3(C)[C@H]1[C@@H]2C [epismilagenin],significant elevation in brain muscarinic receptor density,877 ± 90* fmol/mg/protein,1.73 ± 0.91*,significantly decreased the number of wrong responses,–,–,–,–,–,–

# Reference: patent US20040147495A1, “Sapogenin derivatives, their synthesis and use, and methods based upon their use” (priority 2001, published 2004)
